A short description of this data set: log P(o/w), n-octanol/water two phase system. It counts as physicochemical. The text has this: *log P(o/w) is the decimal logarithm of the distribution coefficient
of a substance in the noctanol/water two phase system.

`CCOCCOCCN(CCOCCOCC)c1ccc(C=C(C#N)c2nc3cc(S(=O)(=O)NC(=O)CC)ccc3s2)cc1` [Dye I-22] came in with a log partition coefficient (logP) of less than 5.
`CCCCCCCCCCCCCCCCS(=O)(=O)Nc1ccc2nc(C(C#N)=Cc3ccc(N(CC)CC)cc3C)sc2c1` [GF-4] displayed a logP of more than 5.
Molecule `CCCCOC(=O)CN(CC(=O)OCCCC)c1ccc(C=C(C#N)C(=O)c2ccc(NS(C)(=O)=O)cc2)c(C)c1` [GF-2] had a logP of less than 5.
As to `CN(C)c1ccc(C=C(C#N)c2nc3cc(C(=O)O)ccc3o2)cc1` [Dye I-1], the logP is less than 5.
Take `CCOCCOCCN(CCOCCOCC)c1ccc(C=C(C#N)c2nc3cc(S(=O)(=O)NC(=O)CC)ccc3o2)cc1` [Dye I-10]: the logP is less than 5.
With `CCCCS(=O)(=O)Nc1ccc(C2=C(C#N)C(=O)OC2=Cc2ccco2)cc1` [GF-3] the figure was less than 5.
The figure for `Cc1cc(N(CC(=O)OC(C)COC(C)COC(C)(C)C)CC(=O)OC(C)COC(C)COC(C)(C)C)ccc1C=C(C#N)c1nc2cc(C(=O)O)ccc2o1` (centres unmarked) [Dye I-6] is less than 5; for `CCCCCCCCCCCCNc1cc(C)c(C=C(C#N)c2nc3ccc(NS(C)(=O)=O)cc3o2)cc1C` [GF-5] it is more than 5.

The values are drawn from patent publication US6057085A, “Color photographic recording material” (Agfa-Gevaert NV, priority 1997, dated 2000).
